In PubChem BioAssay (NCI):
“And” between values parts separate entries of the source, which are not always exact repeats. Equal values may be shown once.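 These data come from cells grown in 96-well plates and exposed to compound for 48 hours at five concentrations. Here, GI50 denotes the concentration required for 50% inhibition of growth. The concentration for full growth arrest is given as TGI.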

What was measured:
Assay in all cases: NCI tumour cell line growth inhibition, 48 h
HL-60(TB) leukemia = test system: HL-60(TB) leukemia
ACHN renal = test system: ACHN renal
HOP-62 NSCLC = test system: HOP-62 NSCLC
SK-MEL-28 melanoma = test system: SK-MEL-28 melanoma
A549 NSCLC = test system: A549 NSCLC
HCT-116 colon = test system: HCT-116 colon
CCRF-CEM leukemia = test system: CCRF-CEM leukemia
SN12C renal = test system: SN12C renal
UACC-62 melanoma = test system: UACC-62 melanoma
HCT-15 colon = test system: HCT-15 colon

| SMILES | TGI (HL-60(TB) leukemia) | TGI (ACHN renal) | TGI (HOP-62 NSCLC) | TGI (SK-MEL-28 melanoma) | TGI (A549 NSCLC) | TGI (HCT-116 colon) | TGI (CCRF-CEM leukemia) | TGI (SN12C renal) | TGI (UACC-62 melanoma) | TGI (HCT-15 colon) | GI50 (HL-60(TB) leukemia) | GI50 (ACHN renal) | GI50 (HOP-62 NSCLC) | GI50 (SK-MEL-28 melanoma) | GI50 (A549 NSCLC) | GI50 (HCT-116 colon) | GI50 (CCRF-CEM leukemia) | GI50 (SN12C renal) | GI50 (UACC-62 melanoma) | GI50 (HCT-15 colon) |
| --- | --- | --- | --- | --- | --- | --- | --- | --- | --- | --- | --- | --- | --- | --- | --- | --- | --- | --- | --- | --- |
| Oc1ccc(Cl)cc1Cc1cc(Cl)cc(Cc2cc(Cl)ccc2O)c1O | 8.38 µM | 7.64 µM | 10.9 µM | 14.6 µM | 10.6 µM | 9.33 µM | 15.3 µM | 8.21 µM | 10.1 µM | 12.2 µM | – | – | – | – | – | – | – | – | – | – |
| CCCCCCCCCCCCCCCCCC(=O)[O][Sn]([CH2]CCC)([CH2]CCC)[CH2]CCC | 0.489 µM | 0.334 µM | 0.332 µM | 0.31 µM | 0.317 µM | 0.25 µM | – | 0.403 µM | 0.45 µM | 0.38 µM | 0.179 µM | 0.163 µM | 0.158 µM | 0.159 µM | 0.153 µM | 0.117 µM | 0.17 µM | 0.152 µM | 0.176 µM | 0.146 µM |
| Clc1ccc(N/N=C/c2ccccn2)nc1 | 1.31 µM | > 100 µM | > 80.3 µM | > 100 µM | > 100 µM | > 100 µM | > 100 µM | > 100 µM | 1.08 µM | > 100 µM | 0.318 µM | 0.379 µM | 0.421 µM | 0.598 µM | 0.518 µM | 0.305 µM | 0.332 µM | 0.469 µM | 0.301 µM | 0.333 µM |
| NC(Cc1cc(Br)c(O)c(Br)c1)C(=O)O (centres undefined) | > 100 µM | > 100 µM | > 100 µM | > 100 µM | > 100 µM | > 100 µM | > 100 µM | > 100 µM | > 100 µM | > 100 µM | – | – | – | – | – | – | – | – | – | – |
| CCNC(=O)Nc1ccc(-c2nc3c(c(N4CCOC[C@@H]4C)n2)CCN(C2COC2)C3)cc1 | > 100 µM | > 56.2 µM | 22 µM and > 7.45 µM | 5.39 µM and 2.24 µM | > 100 µM | > 100 µM | > 100 µM | > 100 µM | 1.28 µM and 0.994 µM | > 100 µM | 7.44 µM and 4.61 µM | 0.285 µM and 0.395 µM | 0.443 µM and 0.391 µM | 0.199 µM and 0.157 µM | 0.354 µM and 0.384 µM | 1.19 µM and 0.78 µM | 0.525 µM and 0.393 µM | 0.31 µM and 0.285 µM | 0.194 µM and 0.0727 µM | 0.638 µM and 0.45 µM |
| Clc1ccc(-c2nc(-c3c[nH]c4ncccc34)cs2)cc1 | > 100 µM | > 100 µM | > 100 µM | > 100 µM | > 100 µM | > 100 µM | > 100 µM | > 100 µM | > 100 µM | > 100 µM | > 100 µM | > 100 µM | > 100 µM | > 100 µM | > 100 µM | 52.9 µM | > 100 µM | > 100 µM | > 100 µM | > 100 µM |
| C[C@H]1O[C@@H](O[C@H]2[C@@H](O)C[C@H](O[C@H]3[C@@H](O)C[C@H](O[C@H]4CC[C@]5(C)C6C[C@@H](O)[C@]7(C)[C@@H](C8=CC(=O)OC8)CC[C@]7(O)C6CC[C@@H]5C4)O[C@@H]3C)O[C@@H]2C)C[C@H](O)[C@@H]1O (some centres undefined) | 0.12 µM | 0.115 µM | 0.102 µM | 0.222 µM | 0.0581 µM | 0.0972 µM | 0.153 µM | 0.457 µM | 0.228 µM | 0.366 µM | 0.034 µM | 0.022 µM | 0.038 µM | 0.104 µM | 0.0163 µM | 0.0207 µM | 0.0216 µM | 0.0266 µM | 0.103 µM | 0.128 µM |
| NC(=O)Cc1ccccc1Oc1nccc(-c2c(-c3ccc(F)cc3)ncn2C2CCNCC2)n1 | > 25 µM | > 25 µM | > 25 µM | > 25 µM | > 25 µM | > 25 µM | > 25 µM | > 25 µM | > 25 µM | > 25 µM | > 25 µM | > 25 µM | > 25 µM | > 25 µM | > 25 µM | > 25 µM | > 25 µM | > 25 µM | > 25 µM | > 25 µM |
| CC(=O)c1cc2c3c(c1)c1cc4c(cc1c(=O)n3CC2)OCO4 | > 100 µM | > 100 µM | > 100 µM | > 100 µM | > 100 µM | 26.6 µM | > 100 µM | > 100 µM | 53.9 µM | > 100 µM | – | – | – | – | – | – | – | – | – | – |
| CCN(CC)CC(O)CNc1ccc(NCC(O)CCl)c2c1C(=O)c1ccccc1C2=O (centres undefined) | 11.3 µM | 16.3 µM | 25.6 µM | 25.4 µM | 24.4 µM | 14.5 µM | 11.4 µM | 19.7 µM | 29.2 µM | 19.9 µM | – | – | – | – | – | – | – | – | – | – |
| O=C1C(=O)c2ccccc2C=C1[N+](=O)[O-] | 54.2 µM | > 100 µM | > 100 µM | > 100 µM | > 100 µM | 69.9 µM | 86.1 µM | > 100 µM | 80.1 µM | > 100 µM | – | – | – | – | – | – | – | – | – | – |
| [Ce+3].[Cl-].[O-]/N=C(\c1ccccc1)c1ccccn1.[O-]/N=C(\c1ccccc1)c1ccccn1.[O-]/N=C(\c1ccccc1)c1ccccn1 | 60.2 µM | > 100 µM | > 100 µM | > 100 µM | > 100 µM | > 100 µM | > 100 µM | > 100 µM | > 100 µM | > 100 µM | 18.7 µM | 48.9 µM | 30.3 µM | 37.9 µM | 42.4 µM | 33.8 µM | 29.3 µM | 47.9 µM | 39.7 µM | 38.1 µM |
| O=C1OCC2=C1C(c1ccccc1)c1cc3c(cc1N2CCO)CCC3 (centres undefined) | 1.94 µM | > 25 µM | > 25 µM | > 25 µM | > 25 µM | 5.42 µM | > 25 µM | > 25 µM | > 25 µM | > 25 µM | 0.0871 µM | 0.148 µM | 0.131 µM | 0.168 µM | 0.152 µM | 0.0857 µM | 0.117 µM | 0.172 µM | 0.111 µM | 0.103 µM |
| O=Cc1ncc(-c2ccc(C(F)(F)F)cc2)c(NC2CCCCCC2)n1 | > 10 µM | > 10 µM | > 10 µM | > 10 µM | > 10 µM | > 10 µM | > 10 µM | > 10 µM | > 10 µM | > 10 µM | > 10 µM | > 10 µM | > 10 µM | > 10 µM | > 10 µM | > 10 µM | > 10 µM | > 10 µM | > 10 µM | > 10 µM |
| NC(=O)c1ncn(C2OC(CO)C(O)C2O)n1 (centres undefined) | > 100 µM | > 100 µM | > 100 µM | > 100 µM | > 100 µM | > 100 µM | 49.6 µM | > 100 µM | > 100 µM | > 100 µM | > 100 µM | 59.8 µM | > 100 µM | > 100 µM | 62 µM | 45.1 µM | 4.73 µM | 85 µM | > 100 µM | 38.4 µM |
| CC(C)Cc1ccc(C(C)/C=C2\CCC(CN3CCOCC3)C2=O)cc1 (centres undefined) | 20.7 µM | 29.4 µM | 19.3 µM | 22.8 µM | 34.8 µM | 18.7 µM | 17.8 µM | 21.5 µM | 25.6 µM | 16.4 µM | – | – | – | – | – | – | – | – | – | – |
| O=C(c1ccc(F)c(F)c1Nc1ccc(I)cc1F)N1CC(O)([C@H]2CCCCN2)C1 | 5.71 µM | 15.8 µM | 17.3 µM | 3.45 µM | 18 µM | 11.7 µM | 29.4 µM | 19.7 µM | 2.92 µM | 19.3 µM | 0.173 µM | 1.86 µM | 1.97 µM | 0.0953 µM | 2.37 µM | 0.649 µM | 12.5 µM | 3.96 µM | 0.097 µM | 4.81 µM |
| O=C(/C=C/c1ccccc1O)c1ccccc1 | 11.1 µM | 24.2 µM | 52.7 µM | 22 µM | 36.1 µM | 2.99 µM | 8.19 µM | 28.7 µM | 25.9 µM | 24.7 µM | 1.52 µM | 11 µM | 17.2 µM | 9.5 µM | 17 µM | 1.58 µM | 2.64 µM | 12.9 µM | 13.1 µM | 10.6 µM |
| C=C1C(=O)O[C@H]2[C@H]1CC/C(COC(=O)NCc1c[nH]c3ccc(OC)cc13)=C\CC[C@@]1(C)O[C@@H]21 | 1.88 µM | 2.01 µM | 24.1 µM | 3.34 µM | 15 µM | 1.22 µM | 1.07 µM | 5.21 µM | 3.69 µM | 2.73 µM | 0.255 µM | 0.729 µM | 10.6 µM | 1.52 µM | 3.26 µM | 0.268 µM | 0.152 µM | 1.42 µM | 1.7 µM | 1.34 µM |
| OCC1OC(n2ccc3cnccc32)CC1O (centres undefined) | > 100 µM | > 100 µM | > 100 µM | > 100 µM | > 100 µM | > 100 µM | > 100 µM | > 100 µM | > 100 µM | > 100 µM | – | – | – | – | – | – | – | – | – | – |
| c1ccc2c(c1)nnn1c3cnccc3nc21 | 33 µM | > 100 µM | > 100 µM | > 100 µM | > 100 µM | > 100 µM | 44.3 µM | > 100 µM | > 100 µM | 80 µM | – | – | – | – | – | – | – | – | – | – |
| O=C1OCC2=C1C(c1cccc([N+](=O)[O-])c1)c1cc3c(cc1N2CCO)CCC3 (centres undefined) | 0.373 µM | > 50 µM | > 50 µM | > 39.9 µM | > 50 µM | 16 µM | > 50 µM | > 39.9 µM | > 24.8 µM | > 50 µM | 0.137 µM | 0.398 µM | 0.199 µM | 1.3 µM | 0.223 µM | 0.148 µM | 0.216 µM | 0.339 µM | 0.0298 µM | 0.121 µM |
